Series [1] has as its system HL-60 (human promyelocytic leukemia cells). Description: MTT cytotoxicity, HL-60 cells. Type of series: cell-based. To be noted: Homo sapiens, HL-60, 72 h exposure, three independent experiments, read-out: Cytotoxic activity IC50 (95% CI) HL-60. How it is done: (§1) Compounds were evaluated for antitumor activity in cell culture in vitro using several human cancer cell lines obtained from the National Cancer Institute, NCI (Bethesda, MD, USA). […] The L929 cells were cultivated under standard conditions in DMEM with Earle’s salts. […] At the end of the incubation time (72 h), the plates were centrifuged and the medium was replaced by fresh medium (200 μL) containing 0.5 mg/mL MTT. After 3 h, the MTT formazan product was dissolved in DMSO (150 μL) and the absorbance was measured using a multiplate reader (Spectra Count, Packard, ON, Canada). The impact of compounds on cell proliferation was quantified as the percentage of control absorbance of the reduced dye at 550 nm. All cell culture based studies were performed in triplicate. All cells were mycoplasma-free.

The subject of series [2] is HCT-116 (human colon carcinoma cells). Description: MTT cytotoxicity, HCT-116 cells. Type of series: cell-based. To be noted: Homo sapiens, HCT-116, 72 h exposure, three independent experiments, read-out: Cytotoxic activity IC50 (95% CI) HCT-116. The procedure:
as §1

Series [3] deals with PC3 (human prostate cancer cells). Description: MTT cytotoxicity, PC3 cells. The note with it: Homo sapiens, PC-3, 72 h exposure, three independent experiments, read-out: Cytotoxic activity IC50 (95% CI) PC3. Type of series: cell-based. How it is done: as §1
The nature of series [4]: MTT cytotoxicity, L929 normal cells. Type of series: cell-based, mouse. The note with it: mouse, normal cell line, 72 h exposure, three independent experiments, read-out: Cytotoxic activity IC50 (95% CI) L929. How it is done:
as §1

Series [5] concerns SF295 (human glioblastoma cells). The series can be described thus: MTT cytotoxicity, SF295 cells. Type of series: cell-based. To be noted: Homo sapiens, SF-295, 72 h exposure, three independent experiments, read-out: Cytotoxic activity IC50 (95% CI) SF295. How it is done:
as §1

Series [6] concerns NCIH-460 (human lung cells). The series can be described thus: MTT cytotoxicity, NCIH-460 cells. It counts as cell-based. To be noted: Homo sapiens, NCI-H460, 72 h exposure, three independent experiments, read-out: Cytotoxic activity IC50 (95% CI) NCIH-460. The procedure:
as §1

Regarding `COc1cccc2c1C(=O)c1c(O)c3c(c(O)c1C2=O)C[C@@](O)(C(=O)CO)C[C@@H]3O[C@H]1C[C@H](N)[C@H](O)[C@H](C)O1` [DOXO, Doxorubicin, reference compound], the IC50 in series [1] was found to be 0.02 µM; in series [2], 0.21 µM; in series [3], 0.76 µM. Besides, the half-maximal inhibitory concentration (IC50) at 72 h in series [4] turned out to be 1.72 µM.

Compound `CCCC[Se]Cc1cn(C2C3=C(OC(C)(C)C2Br)c2ccccc2C(=O)C3=O)nn1` (centres unmarked) [Compound 23, 3-Bromo-4-(4-((butylselanyl)methyl)-1H-1,2,3-triazol-1-yl)-2,2-dimethyl-3,4-dihydro-2H-benzo[h]chromene-5,6-dione] came in with a melting point of 123.1 to 124.4 °C. The concentration for half-maximal inhibition (IC50) in series [1] amounted to 0.71 µM. The 50% inhibitory concentration (IC50) in series [2] was 0.97 µM. In series [5], the half-maximal inhibitory concentration (IC50) worked out at 3.43 µM. Besides, in series [6], the IC50 is 2.64 µM. Besides, the IC50 in series [3] was determined as 1.64 µM. Also, the half-inhibitory concentration (IC50) at 72 h in series [4] is 2.12 µM.

`COC1=C(Cn2cc(-c3ccccc3)nn2)C(=O)c2ccccc2C1=O` [Compound 9, 2-Methoxy-3-((4-phenyl-1H-1,2,3-triazol-1-yl)methyl)naphthalene-1,4-dione] returned a melting point of 103.8 to 104.7 °C. For the same compound, the IC50 in series [1] was 5.39 µM. Also, the IC50 in series [2] is > 10 µM. For the same compound, in series [5], the IC50 is > 10 µM. Also, in series [6], the IC50 was > 10 µM. In series [3], the 50% inhibitory concentration (IC50) was > 10 µM. Further, the half-maximal inhibitory concentration (IC50) at 72 h in series [4] was > 10 µM.

`CC1(C)OC2=C(C(=O)C(=O)c3ccccc32)C(n2cc(C[Se]c3ccc(Cl)cc3)nn2)C1Br` (centres unmarked) [Compound 17, 3-Bromo-4-(4-(((4-chlorophenyl)selanyl)methyl)-1H-1,2,3-triazol-1-yl)-2,2-dimethyl-3,4-dihydro-2H-benzo[h]chromene-5,6-dione] yielded a melting point of 185.3 to 187.1 °C. Besides, the IC50 in series [1] came to 0.81 µM. Also, the half-maximal inhibitory concentration (IC50) in series [2] was > 8 µM. The IC50 in series [5] came to 2.6 µM. In addition, the concentration for half-maximal inhibition (IC50) in series [6] was 2.06 µM. Besides, the 50% inhibitory concentration (IC50) in series [3] came out at 2.03 µM. Moreover, in series [4], the IC50 at 72 h worked out at 0.52 µM.

The compound `COc1ccc([Se]C2=CC(=O)c3ccccc3C2=O)cc1` [Compound 3, 2-((4-Methoxyphenyl)selanyl)naphthalene-1,4-dione] had a melting point of 140.7 to 148.3 °C. Besides, in series [1], the IC50 was found to be 4.68 µM. In addition, the IC50 in series [2] was > 10 µM. Also, the IC50 in series [5] was > 10 µM. Further, the half-maximal inhibitory concentration (IC50) in series [6] was > 10 µM. Besides, in series [3], the 50% inhibitory concentration (IC50) was > 10 µM. In series [4], the IC50 at 72 h was > 10 µM.

Take `CC1(C)OC2=C(C(=O)C(=O)c3ccccc32)C(n2cc(C[Se]c3ccc(F)cc3)nn2)C1Br` (centres unmarked) [Compound 18, 3-Bromo-4-(4-(((4-fluorophenyl)selanyl)methyl)-1H-1,2,3-triazol-1-yl)-2,2-dimethyl-3,4-dihydro-2H-benzo[h]chromene-5,6-dione]: the melting point fell in the range of 187.1 to 190 °C. Also, the IC50 in series [1] worked out at 0.59 µM. Further, the IC50 in series [2] is 0.37 µM. Also, the IC50 in series [5] came out at 1.48 µM. Besides, the IC50 in series [6] is 1.32 µM. Also, the 50% inhibitory concentration (IC50) in series [3] was 1.06 µM. For the same compound, the concentration for half-maximal inhibition (IC50) at 72 h in series [4] worked out at 0.36 µM.

The compound `COC1=C(Cn2cc(C[Se]c3ccccc3)nn2)C(=O)c2ccccc2C1=O` [Compound 14, 2-Methoxy-3-((4-((phenylselanyl)methyl)-1H-1,2,3-triazol-1-yl)methyl)naphthalene-1,4-dione] registered a melting point of 69 to 71 °C. Further, the 50% inhibitory concentration (IC50) in series [1] was > 10 µM. Also, in series [2], the IC50 is > 10 µM. Also, the half-inhibitory concentration (IC50) in series [5] is > 10 µM. For the same compound, in series [6], the IC50 was > 10 µM. For the same compound, in series [3], the half-maximal inhibitory concentration (IC50) was > 10 µM. The half-inhibitory concentration (IC50) at 72 h in series [4] was > 10 µM.

In the case of `COC1=C(CN=[N+]=[N-])C(=O)c2ccccc2C1=O` [Compound 8, 2-(Azidomethyl)-3-methoxynaphthalene-1,4-dione], the 50% inhibitory concentration (IC50) in series [1], in series [2], in series [5], in series [6] and in series [3] was > 10 µM each time. The IC50 at 72 h in series [4] is > 10 µM.

The compound `COC1=C(Cn2cc(-c3ccc(C)cc3)nn2)C(=O)c2ccccc2C1=O` [Compound 12, 2-Methoxy-3-((4-(p-tolyl)-1H-1,2,3-triazol-1-yl)methyl)naphthalene-1,4-dione] displayed a melting point of 123.1 to 124.5 °C. Further, the IC50 in series [1] was > 10 µM. In addition, the IC50 in series [2] was > 10 µM. Moreover, the IC50 in series [5] is > 10 µM. Further, the IC50 in series [6] is > 10 µM. For the same compound, the IC50 in series [3] is > 10 µM. Further, the IC50 at 72 h in series [4] is > 10 µM.

`COC1=C(Cn2cc(-c3ccc(Br)cc3)nn2)C(=O)c2ccccc2C1=O` [Compound 13, 2-((4-(4-Bromophenyl)-1H-1,2,3-triazol-1-yl)methyl)-3-methoxynaphthalene-1,4-dione] registered a melting point of 174.1 to 175 °C. Moreover, the IC50 in series [1] was > 10 µM. In series [2], the IC50 was > 10 µM. In addition, the IC50 in series [5] is > 10 µM. The half-maximal inhibitory concentration (IC50) in series [6] is > 10 µM. Further, the IC50 in series [3] is > 10 µM. Also, the half-maximal inhibitory concentration (IC50) at 72 h in series [4] was > 10 µM.

Take `COC1=C(Cn2cc(-c3ccc([N+](=O)[O-])cc3)nn2)C(=O)c2ccccc2C1=O` [Compound 10, 2-Methoxy-3-((4-(4-nitrophenyl)-1H-1,2,3-triazol-1-yl)methyl)naphthalene-1,4-dione]: the melting point was 205.8 to 206.7 °C. For the same compound, the half-maximal inhibitory concentration (IC50) in series [1] is > 10 µM. The IC50 in series [2] was > 10 µM. In addition, the IC50 in series [5] is > 10 µM. Further, the IC50 in series [6] was > 10 µM. Also, the half-inhibitory concentration (IC50) in series [3] is > 10 µM. The half-maximal inhibitory concentration (IC50) at 72 h in series [4] was > 10 µM.

Compound `O=C1C=C([Se]c2ccc(F)cc2)C(=O)c2ccccc21` [Compound 5, 2-((4-Fluorophenyl)selanyl)naphthalene-1,4-dione] showed a melting point of 139.2 to 139.9 °C. Besides, the IC50 in series [1] was found to be 2.16 µM. The concentration for half-maximal inhibition (IC50) in series [2] was > 10 µM. Besides, the IC50 in series [5] was > 10 µM. The IC50 in series [6] is > 10 µM. The concentration for half-maximal inhibition (IC50) in series [3] is > 10 µM. The IC50 at 72 h in series [4] was > 10 µM.

`CC1(C)OC2=C(C(=O)C(=O)c3ccccc32)C(n2cc(CSc3ccccc3)nn2)C1Br` (centres unmarked) [Compound 24, 3-Bromo-2,2-dimethyl-4-(4-((phenylthio)methyl)-1H-1,2,3-triazol-1-yl)-3,4-dihydro-2H-benzo[h]chromene-5,6-dione] came in with a melting point of 119.5 to 121.4 °C. Besides, in series [1], the half-inhibitory concentration (IC50) is 1.94 µM. Also, the half-inhibitory concentration (IC50) in series [2] is 4.38 µM. Also, the half-maximal inhibitory concentration (IC50) in series [5] was 2.34 µM. The concentration for half-maximal inhibition (IC50) in series [6] was 4.91 µM. In series [3], the IC50 amounted to 2.1 µM. Also, in series [4], the IC50 at 72 h was found to be 0.84 µM.

Regarding `O=C1C=C([Se]c2ccccc2)C(=O)c2ccccc21` [Compound 2, 2-(Phenylselanyl)naphthalene-1,4-dione], the IC50 in series [1] is 1.96 µM; in series [2] it was > 10 µM; in series [5], > 10 µM; in series [6], > 10 µM; in series [3] it was > 10 µM. The IC50 at 72 h in series [4] was > 10 µM.

`COC1=C(Cn2cc(C[Se]c3ccc(OC)cc3)nn2)C(=O)c2ccccc2C1=O` [Compound 15, 2-Methoxy-3-((4-(((4-methoxyphenyl)selanyl)methyl)-1H-1,2,3-triazol-1-yl)methyl)naphthalene-1,4-dione]: the IC50 in series [1], in series [2], in series [5], in series [6] and in series [3] was > 10 µM in each case. In addition, the IC50 at 72 h in series [4] was > 10 µM.

`CC1(C)OC2=C(C(=O)C(=O)c3ccccc32)C(n2cc(C[Se]c3cccs3)nn2)C1Br` (centres unmarked) [Compound 22, 3-Bromo-2,2-dimethyl-4-(4-((thiophen-2-ylselanyl)methyl)-1H-1,2,3-triazol-1-yl)-3,4-dihydro-2H-benzo[h]chromene-5,6-dione] gave a melting point of 104.3 to 108.6 °C. Also, in series [1], the IC50 stood at 0.53 µM. Also, the 50% inhibitory concentration (IC50) in series [2] is > 8 µM. The IC50 in series [5] was 2.13 µM. Also, in series [6], the half-inhibitory concentration (IC50) is 2.75 µM. Besides, the IC50 in series [3] was found to be 2.47 µM. Moreover, in series [4], the IC50 at 72 h stood at 3.16 µM.

On to `O=C1C=C([Se]c2ccc(Cl)cc2)C(=O)c2ccccc21` [Compound 4, 2-((4-Chlorophenyl)selanyl)naphthalene-1,4-dione], for which the melting point is 154.8 to 155.7 °C. The IC50 in series [1] worked out at 2.25 µM. For the same compound, the IC50 in series [2] is > 10 µM. The concentration for half-maximal inhibition (IC50) in series [5] was > 10 µM. Besides, the IC50 in series [6] is > 10 µM. Also, the IC50 in series [3] is > 10 µM. Further, the IC50 at 72 h in series [4] is > 10 µM.

A word on the IC50: it is the concentration that inhibits the measured activity by half. What is called melting point is the temperature, or range, at which the solid turns liquid.

Values taken from PMC6017932, “Synthesis of Selenium-Quinone Hybrid Compounds with Potential Antitumor Activity via Rh-Catalyzed C-H Bond Activation and Click Reactions” (Molecules : A Journal of Synthetic Chemistry and Natural …, 2017).
